Data: article PMC8541546, “Identification of HLA-A2-Restricted Mutant Epitopes from Neoantigens of Esophageal Squamous Cell Carcinoma” (Vaccines, 2021)

What was measured:
HLA-A*0201 molecule = biological target: T1, HLA-A*0201 molecule (Homo sapiens, UniProt P04439, D140Y/D185E/D98H/E176V/E277Q/G131W/G231S/I119V/I121R/I166T/I218V/L300P/L318F/N151K/N90K/P208A/P217A/Q86G/Q94H/R138H/R169H/T345S); experiment: T2A2 cell-binding assay; details: T2A2 cells; FI = (MFI of peptide - MFI of control without peptide)/MFI of control without peptide; anti-HLA-A2 BB7.2, flow cytometry; FI > 1 = high binding affinity
T1 construct: T2A2 cells (TAP-deficient HLA-A2 molecules overexpressing, cultured in IMDM medium); host or cells: T2A2 cells
Protocol: The binding affinity of neoepitope to the MHC molecule and the stable neoepitope/MHC complex are critical for inducing T cell immune response, so we first performed a T2A2 cell-binding assay and stabilization assay. The T2A2 cell-binding assay was measured as in our previous study. The binding affinity was computed as follows: fluorescence index (FI) = (mean fluorescence intensity (MFI) of peptide group-MFI of the dissolved buffer without peptide group)/MFI of the dissolved buffer without peptide group.

[1] = biological target: T2, peptide/HLA-A*0201 complex (Homo sapiens, UniProt P04439, D140Y/D185E/D98H/E176V/E277Q/G131W/G231S/I119V/I121R/I166T/I218V/L300P/L318F/N151K/N90K/P208A/P217A/Q86G/Q94H/R138H/R169H/T345S); experiment: peptide/MHC complex stabilization assay on T2A2 cells; assay type: binding; details: T2A2 cells pulsed with 50 μg/mL peptide and 3 μg/mL β2-M 18 h, BFA 1 h; MFI at 0, 2, 4, 6 h; time of half losing MFI of 0 h
T2 construct: T2A2 cells (TAP-deficient HLA-A2 molecules overexpressing, cultured in IMDM medium); β2-M from Merck; host or cells: T2A2 cells
Protocol: For the stabilization test, T2A2 cells were pulsed with 50 μg/mL mutant peptide and 3 μg/mL β2-Microglobulin (β2-M, Merck, Kenilworth, NJ, USA) in IMDM (serum-free) medium for 18 h. After three times washing, free peptides were removed and brefeldin A (BFA, 10 μg/mL, BD Bioscience, San Diego, CA, USA) was added. BFA was removed after 1 h impeding, and the cells were incubated for additional time. Finally, T2A2 was marked with anti-human HLA-A2 PE-Cyanine7 for 30 min, then analyzed by FACS Calibur (BD Bioscience, USA). MFI of 0 h was set as 100%, and the time of half losing MFI of 0 h defined the dissociation complex 50 (DC50). DC50 was computed as follows: (MFI of 0 h-MFI of (2, 4, or 6 h))/MFI of 0 h × 100%.

KYSE140-MUT cells = experiment: Intracellular staining (granzyme B) of CTLs from immunized Tg mice; assay type: in vivo, HLA-A2.1/K^b Tg mice; details: 100 μg/mouse s.c. with CpG ODN 1826 once a week for three weeks; spleen lymphocytes re-stimulated with MUT peptide; KYSE140-MUT target cells; n = 5 per group
Protocol: To investigate whether neoepitopes could induce a peptide-specific T cell response in vivo, HLA-A2.1/K^b Tg mice were used and immunized according to the procedure de-scribed previously. In brief, mutant peptides or WH-mutant peptides (100 μg per mouse) with CpG-ODN 1826 (30 μg per mouse) were injected s.c. in the back of HLA-A2.1/K^b Tg mice (five mice per group, randomly grouped) once a week for three weeks. The normal saline (NS) group was immunized s.c. only with CpG ODN 1826 (30 μg/mouse) once a week for three weeks. Five days after the last injection, spleen lymphocytes were isolated and cultured at the concentration of 5 × 10^6 cells/mL in RPMI 1640 medium. These cells were induced by the same mutant peptides (10 μg/mL) that were used for in vivo stimulation and mIL-2 (30 U/mL) for a week. Intracellular cytokine staining assay (ICS) and cytotoxic assay (E: T ratios = 20:1, 40:1, 80:1) were performed after a week induced in vitro [22].
To test the MUT peptides stimulation of CTL response in vivo, peptide-specific T cells induced from Tg mice were co-cultured with tumor cell lines transfected with WT or MUT minigenes, as described in the in vitro assay. These T cells were marked by surface marker antibodies anti-mouse CD3 and CD8α before fixation and permeabilization. Intracellular cytokines were marked by anti-mouse IFN-γ or anti-mouse granzyme B, respectively, and analyzed by flow cytometry (BD FACSCelesta™, USA).

[2] = system: peptide-pulsed T2A2 cells; experiment: IFN-γ intracellular staining of peptide-induced T cells from donor PBMCs; assay type: cell-based, human; details: PBMCs of HLA-A2+ donors B–F, DCs pulsed with 10 μg/mL peptide, three rounds
Protocol: DCs involve and play an important role in initiating CD8^+ T cell response. Consequently, ten HLA-A2^+ healthy donors’ PBMCs were isolated, autologous DCs were generated, and CTLs were induced according to the procedure described previously. In brief, PBMCs were seeded at a density of 5 × 10^6 cells/well in a 6-well plate, and after 3 h, the non-adherent cells were removed and cryopreserved for future incubation with mature autologous DCs. Differentiation of the adherent cells into dendritic cells was induced by GM-CSF (100 ng/mL, #300-03, PeproTech, Rocky Hill, NJ, USA) and IL-4 (100 ng/mL; #200-04, PeproTech, USA), with replenishment every 2 days. On day 5, maturation of DCs was induced using 100 ng/mL LPS (#L4516, Sigma-Aldrich, St. Louis, MO, USA), and maturation was checked on day 8 by flow cytometry (BD FACSCelesta™) using markers for anti-human HLA-DR, anti-human CD80, and anti-human CD86. Then, mature DCs (1 × 10^5) were pulsed with each 10 μg /mL individual peptide or no peptides (control) for 2 h at 37 °C. Next, peptide-pulsed DCs were used to prime the previously cryopreserved autologous peripheral blood lymphocytes (PBLs) at a DC/PBL ratio of 1:10 using complete RPMI-1640 media supplemented with 100 IU/mL rhIL-2 (#200-02, PeproTech, USA) and 10 ng/mL rhIL-7 (#200-07, PeproTech, USA). Half of the feeding medium was replenished every 2 days. After 7 days, PBLs were restimulated with freshly pulsed autologous DCs every 7 days.
When target cells were peptide-pulsed T2A2 cells (MUT peptide or its corresponding WT peptide), peptide-specific T cells (from HLA-A2^+ healthy donors B–F) stimulated by MUT peptides were co-cultured with these cells in the presence of BFA for 5 h. Then T cells were marked by anti-human CD3 and anti-human CD8α monoclonal antibody. Thirty minutes later, cells were fixed by fixation buffer (Thermo Scientific, Waltham, MA, USA) for thirty minutes and washed by permeabilization buffer (Thermo Scientific, USA). Permeabilized T cells were marked by anti-human IFN-γ monoclonal antibody.

Sequence	FI (fluorescence index) (HLA-A*0201 molecule)	DC50 (dissociation complex 50) [1] [h]	granzyme B expression of CTLs (KYSE140-MUT cells) [%]	IFN-γ release of MUT peptide-induced T cells, MUT versus WT peptide-loaded T2A2 cells [2]
QVTDFLAPL [PCLO-E4090Q]	1.85	>4	1.5	immunogenic
ILWRQDINL [NFE2L2-D13N]	1.67	>6	2.3	immunogenic
LLGPNSFEV [TP53-R267P]	1.81	>6	0.7	immunogenic
